Laboratory results reported in paper PMC8194371 (Journal of medicinal chemistry, 2021).
In brackets after ≈: the same amount, converted by molar mass. Several values for one entry are separate records, joined by “and”; a condition that tells them apart may be missing. Identical values can stand only once. Like-named read-outs stand apart in the source and are kept apart here.

Experiments:
[1] = test system: Mtb strain CDC1551 dop::MycoMarT7 expressing pupGGE; test: Accumulation of pupylated proteins; format: cell-based, Mycobacterium tuberculosis
β5c of the human c-20S = β5c of the human c-20S (Homo sapiens, UniProt P28074); test: human constitutive proteasome β5c inhibition, suc-LLVY-AMC; format: biochemical; settings: for SIapp IC50–β5c / IC50–Mtb20S: apparent selectivity index, rounded to three or fewer significant figures
β5i of the human i-20S = β5i of the human i-20S (Homo sapiens, UniProt P28062); format: biochemical
[2] = test system: Mtb strain MHD1441 (H37Rv WT + pSCK1); format: cell-based, Mycobacterium tuberculosis; settings: 0.1-33 μM, day 4
HepG2 cells = test: Viability of HepG2 cells; settings: at 30 μM
Kinetic solubility = format: physicochemical; settings: PBS buffer
Mtb20SOG = Mtb20SOG (Mycobacterium tuberculosis, UniProt P9WHT9); test: Mtb20SOG proteasome inhibition, suc-LLVY-AMC hydrolysis; format: biochemical; settings: Mtb20S IC50, text values
Mtb20SOG, sequence (P9WHT9 58-291): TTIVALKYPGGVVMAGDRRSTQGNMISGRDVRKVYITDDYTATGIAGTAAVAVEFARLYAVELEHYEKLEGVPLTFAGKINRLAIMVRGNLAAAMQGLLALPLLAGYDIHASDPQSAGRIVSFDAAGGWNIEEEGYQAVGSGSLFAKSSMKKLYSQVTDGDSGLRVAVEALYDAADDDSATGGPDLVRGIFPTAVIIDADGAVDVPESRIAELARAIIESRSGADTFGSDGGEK

| SMILES | SIapp IC50–β5c / IC50–Mtb20S (β5c of the human c-20S) | SIapp IC50–β5i / IC50–Mtb20S (β5i of the human i-20S) | also measured |
| --- | --- | --- | --- |
| CC(C)C[C@H](NC(=O)[C@H](CCc1ccccc1)NC(=O)CN1CCOCC1)C(=O)N[C@@H](Cc1ccccc1)C(=O)N[C@@H](CC(C)C)C(=O)[C@@]1(C)CO1 [Carfilzomib, reference compound] | – | – | accumulation of pupylated proteins [1]: led to accumulation of pupylated proteins |
| O=C1CCCCCCCCCC[C@@H](C(=O)NCc2cccc3ccccc23)NC(=O)[C@H](CC(=O)N2CCCC2)N1 [Macrocycle 2] | >674 | >674 | – |
| O=C1CCCCCCCCC[C@@H](C(=O)NCc2cccc3ccccc23)NC(=O)[C@H](CC(=O)N2CCCC2)N1 [Macrocycle 3] | >141 | >141 | – |
| O=C1CCCCCCCCOC[C@@H](C(=O)NCc2cccc3ccccc23)NC(=O)[C@H](CC(=O)N2CCCC2)N1 [Macrocycle 4] | >984 | >984 | – |
| O=C1CCc2cccc(c2)Oc2ccc(cc2)C[C@@H](C(=O)NCc2ccccc2F)NC(=O)[C@H](CC(=O)N2CCCC2)N1 [Macrocycle 5] | >500 | – | – |
| O=C1CCc2cccc(c2)Oc2ccc(cc2)C[C@@H](C(=O)NCc2ccccc2F)NC(=O)[C@H](CC(=O)N2CCC[C@@H]2c2ccccc2)N1 [Macrocycle 6] | >13,600 | >13,600 | selectivity for Mtb20S over human c-20S (β5c of the human c-20S): > 13,600 fold and > 10,000 fold; selectivity for Mtb20S over human i-20S (β5i of the human i-20S): > 13,600 fold and > 10,000 fold; Pup-GFP accumulation (RFU normalized by OD) [2]: dose-dependent increase of RFU; accumulation of pupylated proteins ([1]; macrocycle 6 at 1, 3, or 10 μM for 48 h, CFZ at 50 μM): dose-dependently promoted the accumulation of pupylated proteins; cytotoxicity toward HepG2 (HepG2 cells): no appreciable cytotoxicity |
| O=C1CCCCCCCCOC[C@@H](C(=O)NCc2ccccc2F)NC(=O)[C@H](CC(=O)N2CCC[C@@H]2c2ccccc2)N1 [Macrocycle 9] | >14,000 | >14,000 | solubility at 24 h (Kinetic solubility; pH 6.8): 1.4 µg/mL (≈ 2.35 µM); solubility at 24 h (Kinetic solubility; pH 6.8, aqueous buffer, kinetic from dmso stock): < 1.4 µg/mL |
| O=C1CCc2cccc(c2)OCCCC[C@@H](C(=O)NCc2ccccc2F)NC(=O)[C@H](CC(=O)N2CCC[C@@H]2c2ccccc2)N1 [Macrocycle 10] | >14,400 | >14,400 | selectivity for Mtb20S over human c-20S (β5c of the human c-20S): > 14,400 fold; selectivity for Mtb20S over human i-20S (β5i of the human i-20S): > 14,400 fold; Pup-GFP accumulation (RFU normalized by OD) [2]: dose-dependent increase of RFU; cytotoxicity toward HepG2 (HepG2 cells): no appreciable cytotoxicity |
| O=C1CCc2cccc(c2)OCCCC[C@@H](C(=O)NCc2ccccc2F)NC(=O)[C@H](CC(=O)N2CCC[C@@H]2C2CC2)N1 [Macrocycle 11] | – | – | IC50 (Mtb20SOG): 6.5 nM |
